The results in this text go back to patent publication US20250326765A1, “PDE4B INHIBITOR AND USE THEREOF” (XIZANG HAISCO PHARMACEUTICAL CO., LTD., priority 2022, published 2025).

Test [1] is described as follows: Inhibition of LPS-induced TNF-α release from human peripheral blood mononuclear cells in vitro. The class given is cell-based. Conditions: PBMC, hPBMC, 100 ng/mL LPS, 4 h; for IC50: class symbols, read-out: Re IC50 (nM) (relative IC50), TNF-α induced by LPS. The method, then:
Normal human peripheral blood which was anticoagulated (citric acid anticoagulation) was collected, and hPBMCs were prepared by Ficoll-Paque PLUS (Cytiva, Cat #17144002, density 1.077 g/mL). The concentration of hPBMC cells was adjusted to 0.25×10^6 cells/mL with RPMI1640 medium and inoculated into a 96-well plate in an amount of 50000 cells per well. Subsequently, different concentrations of drugs were added for pre-incubation for 1 h (the DMSO final concentration was 0.1%, and the positive and negative control wells had the same volume of RPMI1640 containing 0.1% DMSO). After the pre-incubation was complete, 100 ng/mL LPS (SIGMA, L2630) was added to the compound and positive control wells, and the negative control well had the same volume of RPMI1640 containing 0.1% DMSO. Incubation was carried out for 4 h in an incubator at 37° C. and 5% CO2. The cell supernatant was collected, and the content of TNF-α in the supernatant sample was detected by human TNF-α Elisa quantitative test kit (Sino Biological, Cat #KIT10602). The IC50 value was calculated using GraphPad Prism software.

The target in test [2] is T1, hERG potassium ion channel (Homo sapiens, UniProt Q12809).
T1 construct: expressed in transfected cells
Briefly: Test for hERG potassium ion channel (manual patch-clamp, CHO cells). The class given is cell-based. As to conditions: CHO cells stably expressing hERG, whole cell patch-clamp; read-out: IC50, inhibition of hERG potassium channel current. From the text: Experimental Platform: Electrophysiological Manual Patch-Clamp System
Cell line: Chinese hamster ovary (CHO) cell line stably expressing hERG potassium ion channel
Experimental method: CHO (Chinese Hamster Ovary) cells stably expressing hERG potassium channel were subjected to a whole cell patch-clamp technique to record the hERG potassium channel current at room temperature. The glass microelectrode was made of a glass electrode blank (BF150-86-10, Sutter) by a puller. The tip resistance after filling the liquid in the electrode was about 2-5 MQ. The glass microelectrode can be connected to the patch-clamp amplifier by inserting the glass microelectrode into an amplifier probe. The clamping voltage and data recording were controlled and recorded by the pClamp 10 software through a computer. The sampling frequency was 10 kHz, and the filtering frequency was 2 kHz. After the whole cell records were obtained, the cells were clamped at −80 mV, and the step voltage that induced the hERG potassium current (IhERG) was depolarized from −80 mV to +20 mV for 2 s, then repolarized to −50 mV, and returned to −80 mV after 1 s. This voltage stimulation was given every 10 s, and the administration process was started after the hERG potassium current was confirmed to be stable (at least 1 minute). The compound was administered for at least 1 minute at each test concentration, and at least 2 cells (n: 2) were tested at each concentration.
Data processing: Data analysis processing was carried out by using pClamp 10, GraphPad Prism 5, and Excel software. The degree of inhibition on the hERG potassium current (peak value of hERG tail current induced at −50 mV) at different compound concentrations was calculated by the following formula:
[formula] • where Inhibition % represents the percentage inhibition of the compound on the hERG potassium current, and I and Io represent the amplitude of the hERG potassium current after and before administration, respectively.
Compound IC50 was calculated using GraphPad Prism 5 software by fitting according to the following equation: […]
(The hERG channel carries a current that helps repolarise heart muscle cells.)

Another test has as its target T2, PDE4D2 (Homo sapiens, UniProt Q08499).
T2 construct: purchased BPS Bioscience 60345
In words: Effect of compounds on PDE4D2 activity (fluorescence polarization kit). The class given is biochemical. Conditions: class symbols. The essentials:
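PDE4D2 (0.068 ng/well final) pre-incubated 15 min at room temperature with serially diluted compound, then […] FAM-cAMP (final) added for 30 min. Binding Agent added for 1 h before fluorescence polarization readout (Ex 485/Em 520 nm, mP). Inhibition derived against positive and negative control wells; IC50 from concentration-inhibition data.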

Bounds are passed on as bounds.

T2 sequence (Q08499 303-809): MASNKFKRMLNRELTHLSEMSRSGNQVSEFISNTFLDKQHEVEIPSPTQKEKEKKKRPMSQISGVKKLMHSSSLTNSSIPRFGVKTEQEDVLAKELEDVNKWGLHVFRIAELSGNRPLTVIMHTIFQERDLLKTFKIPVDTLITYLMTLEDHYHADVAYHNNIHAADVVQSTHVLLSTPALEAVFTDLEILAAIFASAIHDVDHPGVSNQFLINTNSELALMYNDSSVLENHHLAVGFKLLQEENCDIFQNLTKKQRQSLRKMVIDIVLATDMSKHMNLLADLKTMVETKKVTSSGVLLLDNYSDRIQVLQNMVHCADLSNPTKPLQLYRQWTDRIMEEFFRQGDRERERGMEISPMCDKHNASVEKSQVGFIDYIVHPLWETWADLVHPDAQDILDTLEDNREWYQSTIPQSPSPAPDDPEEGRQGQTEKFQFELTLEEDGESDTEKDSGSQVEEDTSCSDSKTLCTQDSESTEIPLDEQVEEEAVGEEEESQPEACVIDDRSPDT
T1 sequence (Q12809 whole entry): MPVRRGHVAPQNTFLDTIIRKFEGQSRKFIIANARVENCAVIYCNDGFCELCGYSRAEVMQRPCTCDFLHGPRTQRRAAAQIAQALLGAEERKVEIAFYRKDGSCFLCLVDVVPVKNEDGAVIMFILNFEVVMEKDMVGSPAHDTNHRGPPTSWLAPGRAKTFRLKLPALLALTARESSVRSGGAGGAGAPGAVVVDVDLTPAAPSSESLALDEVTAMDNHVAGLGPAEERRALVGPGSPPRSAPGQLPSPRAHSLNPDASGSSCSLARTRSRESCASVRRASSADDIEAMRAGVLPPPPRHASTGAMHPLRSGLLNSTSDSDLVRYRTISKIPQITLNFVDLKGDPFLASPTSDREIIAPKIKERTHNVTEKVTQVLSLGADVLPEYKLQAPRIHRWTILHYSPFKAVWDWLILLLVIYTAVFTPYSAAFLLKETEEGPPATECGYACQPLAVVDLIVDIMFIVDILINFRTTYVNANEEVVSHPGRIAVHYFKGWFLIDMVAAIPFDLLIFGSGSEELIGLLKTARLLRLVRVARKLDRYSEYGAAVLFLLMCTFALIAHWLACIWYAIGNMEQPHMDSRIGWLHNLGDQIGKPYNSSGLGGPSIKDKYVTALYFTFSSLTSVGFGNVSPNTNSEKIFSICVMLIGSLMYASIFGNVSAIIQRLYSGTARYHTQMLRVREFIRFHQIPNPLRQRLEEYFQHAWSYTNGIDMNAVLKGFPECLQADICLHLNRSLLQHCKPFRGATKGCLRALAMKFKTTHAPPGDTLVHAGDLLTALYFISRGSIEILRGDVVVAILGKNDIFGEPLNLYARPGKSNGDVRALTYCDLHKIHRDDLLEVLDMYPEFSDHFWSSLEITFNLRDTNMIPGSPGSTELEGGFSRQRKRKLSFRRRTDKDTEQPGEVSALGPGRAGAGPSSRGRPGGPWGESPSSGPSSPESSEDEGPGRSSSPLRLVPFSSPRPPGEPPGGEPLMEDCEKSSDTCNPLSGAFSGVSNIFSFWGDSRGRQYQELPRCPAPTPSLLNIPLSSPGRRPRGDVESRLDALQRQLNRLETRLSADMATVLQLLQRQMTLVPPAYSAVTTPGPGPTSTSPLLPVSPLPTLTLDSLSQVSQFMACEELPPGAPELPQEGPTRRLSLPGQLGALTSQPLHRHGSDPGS

In general, IC50 refers to the concentration at which inhibition is half-maximal. For `[O-][S@+]1CCc2nc(N3C[C@H]4CN(c5ccc6c(c5)CC6)C[C@H]4C3)nc(NC3(CO)CCC3)c21` [Compound 31], the results for the IC50 (in test [1]; in test [2]; against PDE4D2) were 50 to 100 nM, 12200 nM and under 10 nM, respectively. For the same molecule, the Emax in test [1] (read-out: Max inhibition (%)) amounted to 75.4%.
`C#Cc1cnc(C2=CCN(c3nc4c(c(NC5(CO)CCC5)n3)[S+]([O-])CC4)CC2)nc1` (stereo not shown) [Compound 37]: the IC50 was under 10 nM in test [1], 13300 nM in test [2] and under 10 nM on PDE4D2.
